# Where two headings read alike, the source gives them in different places.
# Key:
# [1] = system: Mouse leukaemia P388 cells; assay: In vivo anti-tumour effect on P388 mouse leukaemia, single i.p. dose; conditions: for Dose (mg kg-1) giving the maximal effect: P388, single doses i.p.; for Maximal effect T/C (%): P388, single doses i.p. 24 h after transplantation, median survival treated/control x 100, six animals per group
# Description: (§1) The numerous antimitotic drugs already developed and therapeu- tically used for a large number of pathologies belong to different classes based on their chemical structure and other distinctive features. Antimitotic drugs usually target the tubulin/microtubule network of the cytoskeleton that is formed by assembly of cyto- plasmic tubulin dimers. The stability of the different microtubular structures varies considerably; some of their functions depend on their lability. The lability is augmented by the extreme sensitivity to various drugs. Several synthetic and natural compounds interact specifically with tubulin and/or microtubule, fundamentally destroying its dynamic character and leading to cell death. […] Because of their extensive clinical use, it is important to synthesize additional agents having at least the same biological activity. […] Nevertheless, it is unclear yet how the anti-calmodulin activity of these drugs is related to their desired and undesired pharmacological effects. […] The synthesis of the KAR derivatives are presented. […] Taxol, GTP and trifluoperazine were purchased from Sigma. All organic reagents for synthesis of the new compounds were obtained from Aldrich and were of the highest grade. All other chemicals were reagent grade commercial preparations. […] Tubulin was stored in 1 M sucrose, 10 mM sodium phosphate buffer, 0.5 mM magnesium chloride and 0.1 mM GTP, pH 7.0, at -80C and dialysed against the appropriate buffer before use. […] PFK, aldolase and glycerol-3-phosphate dehydrogenase- triosephosphate isomerase purified from rabbit skeletal muscle were purchased in ammonium sulphate suspensions from Sigma or Boehringer. The enzyme suspensions were centrifuged at 10 000g for 5 min. The pellets were suspended in the appropriate buffer, then the enzymes were gel filtered or dialysed in the same buffer to remove ammonium sulphate. […] (Figure 1B; R1 , CH3; R2 , CH2 CH2 Cl). […] After 2 h incubation at room temperature, 200 ml dried toluene was added to the reaction mixture. […] The mixture was stirred for 30 min. After separation of the organic phase, it was washed with water (3 x 30 ml) and dried with potassium sulphate and evaporated on a water bath of 35-40C at 20-27 hPa. The resulting material was chromatographed on silica gel (500 g, bead size of 0.040- 0.063 mm) column (30 mm x 500 mm) using ethyl acetate/ethanol (9:1) mixture as eluent. […] The mixture was kept for 4 h at room temperature and then evaporated on a water bath at 40C under a vacuum of 80 hPa to a final volume of 5-6 ml. […] (Figure 1B, R1 , CHO; R2 , CH2 CH2 Cl). […] Synthesis of KAR-4 [3-allyl-2,4-dioxo-3,5-spiro-oxazolidino- 4-deacetoxy-vinblastine] (Figure 1B; R1 , CH3; R2 , CH2 CH=CH2 ). […] NMR measurements were carried out on a Varian Unity plus-500 instrument (500 MHz for 1H and 125 MHz for 13C) in DMSO. Chemical shifts were determined relative to dTMS = 0.00 p.p.m. 1H and 13C signal assignments were verified by a concerted use of two-dimensional 1H-1H and 1H-13C shift correlation methods (DQFCOSY, HSQC, HMBC) and NOESY experiments. The gradient-enhanced DQFCOSY, HSQC, HMBC and NOESY experiments were recorded by using the standard spectrometer software package. A mixing time of tmix = 0.5 s was used for the NOESY experiments.
# [2] = system: Mouse Ehrlich ascites tumour cells; assay: In vivo anti-tumour effect on Ehrlich ascites carcinoma, single i.p. dose 4 days after transplantation
# Description: as §1
# [3] = system: Human neuroblastoma cell line (SH-SY5Y); assay: Microculture tetrazolium assay (MTA), cytotoxicity
# Description: as §1
# [4] = system: tubulin; assay: Taxol-induced tubulin polymerization, turbidity at 350 nm; assay type: biochemical, calf; conditions: taxol-induced assembly, MES buffer pH 6.8, 37C; average of three independent measurements; read-out: Anti-tubulin effect, turbidity at 350 nm, IC50
# Description: as §1
# [5] = molecular target: T1, calmodulin (Bos taurus, UniProt P62157); assay: Anti-calmodulin activity assay: calmodulin-induced PFK inactivation; assay type: biochemical, bovine; conditions: drug 20 M; for Effect on calmodulin induced PFK inactivation: Activity (U mg-1): PFK 1.2 M protomers, calmodulin 3 M, 60 min, without calmodulin 66.6 U mg-1, with calmodulin 8.0 U mg-1; for Anti-calmodulin activity: Efficiency (%): calculated from the activity data (100% = PFK without calmodulin, 0% = PFK with calmodulin)
# T1 construct: Calmodulin from bovine brain was purified to homogeneity using Phenyl-Sepharose (Pharmacia) chromatography; from tissue; host or cells: bovine brain
# Description: The numerous antimitotic drugs already developed and therapeu- tically used for a large number of pathologies belong to different classes based on their chemical structure and other distinctive features. Antimitotic drugs usually target the tubulin/microtubule network of the cytoskeleton that is formed by assembly of cyto- plasmic tubulin dimers. The stability of the different microtubular structures varies considerably; some of their functions depend on their lability. The lability is augmented by the extreme sensitivity to various drugs. Several synthetic and natural compounds interact specifically with tubulin and/or microtubule, fundamentally destroying its dynamic character and leading to cell death. […] Because of their extensive clinical use, it is important to synthesize additional agents having at least the same biological activity. […] Nevertheless, it is unclear yet how the anti-calmodulin activity of these drugs is related to their desired and undesired pharmacological effects. […] The synthesis of the KAR derivatives are presented. […] Taxol, GTP and trifluoperazine were purchased from Sigma. All organic reagents for synthesis of the new compounds were obtained from Aldrich and were of the highest grade. All other chemicals were reagent grade commercial preparations. […] Tubulin was stored in 1 M sucrose, 10 mM sodium phosphate buffer, 0.5 mM magnesium chloride and 0.1 mM GTP, pH 7.0, at -80C and dialysed against the appropriate buffer before use. […] PFK, aldolase and glycerol-3-phosphate dehydrogenase- triosephosphate isomerase purified from rabbit skeletal muscle were purchased in ammonium sulphate suspensions from Sigma or Boehringer. The enzyme suspensions were centrifuged at 10 000g for 5 min. The pellets were suspended in the appropriate buffer, then the enzymes were gel filtered or dialysed in the same buffer to remove ammonium sulphate. […] (Figure 1B; R1 , CH3; R2 , CH2 CH2 Cl). […] After 2 h incubation at room temperature, 200 ml dried toluene was added to the reaction mixture. […] The mixture was stirred for 30 min. After separation of the organic phase, it was washed with water (3 x 30 ml) and dried with potassium sulphate and evaporated on a water bath of 35-40C at 20-27 hPa. The resulting material was chromatographed on silica gel (500 g, bead size of 0.040- 0.063 mm) column (30 mm x 500 mm) using ethyl acetate/ethanol (9:1) mixture as eluent. […] The mixture was kept for 4 h at room temperature and then evaporated on a water bath at 40C under a vacuum of 80 hPa to a final volume of 5-6 ml. […] (Figure 1B, R1 , CHO; R2 , CH2 CH2 Cl). […] Synthesis of KAR-4 [3-allyl-2,4-dioxo-3,5-spiro-oxazolidino- 4-deacetoxy-vinblastine] (Figure 1B; R1 , CH3; R2 , CH2 CH=CH2 ). […] NMR measurements were carried out on a Varian Unity plus-500 instrument (500 MHz for 1H and 125 MHz for 13C) in DMSO. Chemical shifts were determined relative to dTMS = 0.00 p.p.m. 1H and 13C signal assignments were verified by a concerted use of two-dimensional 1H-1H and 1H-13C shift correlation methods (DQFCOSY, HSQC, HMBC) and NOESY experiments. The gradient-enhanced DQFCOSY, HSQC, HMBC and NOESY experiments were recorded by using the standard spectrometer software package. A mixing time of tmix = 0.5 s was used for the NOESY experiments. […] Mass spectrum was recorded on a Kratos MS 80 instrument using FAB.
# [6] = system: Mouse leukaemia P388 cells; set-up: method as in Orosz et al (1997a); conditions: P388, single doses i.p.; data published also in ref Orosz et al (1997a); cited from earlier work
# [7] = molecular target: Phosphofructokinase [ATP: D-fructose 6-phosphate 1-phospho-transferase, EC 2.7.1.11] from rabbit skeletal muscle (rabbit) (UniProt P00511)
# [8] = Table 2A, 40 mg kg-1 single dose i.p.
# [9] = Table 2A, 40 mg kg-1 single dose i.p., sacrifice 8 days after implantation, control 5.33 ml
# [10] = read-out: Cytotoxicity MTA IC50, 4-day treatment, MTT
# [11] = Table 2B, 2 mg kg-1 single dose i.p.
# [12] = Table 2B, 5 mg kg-1 single dose i.p.
# [13] = Table 2B, 10 mg kg-1 single dose i.p.
# Phosphofructokinase [ATP: D-fructose 6-phosphate 1-phospho-transferase, EC 2.7.1.11] from rabbit skeletal muscle (rabbit), sequence (P00511 whole entry): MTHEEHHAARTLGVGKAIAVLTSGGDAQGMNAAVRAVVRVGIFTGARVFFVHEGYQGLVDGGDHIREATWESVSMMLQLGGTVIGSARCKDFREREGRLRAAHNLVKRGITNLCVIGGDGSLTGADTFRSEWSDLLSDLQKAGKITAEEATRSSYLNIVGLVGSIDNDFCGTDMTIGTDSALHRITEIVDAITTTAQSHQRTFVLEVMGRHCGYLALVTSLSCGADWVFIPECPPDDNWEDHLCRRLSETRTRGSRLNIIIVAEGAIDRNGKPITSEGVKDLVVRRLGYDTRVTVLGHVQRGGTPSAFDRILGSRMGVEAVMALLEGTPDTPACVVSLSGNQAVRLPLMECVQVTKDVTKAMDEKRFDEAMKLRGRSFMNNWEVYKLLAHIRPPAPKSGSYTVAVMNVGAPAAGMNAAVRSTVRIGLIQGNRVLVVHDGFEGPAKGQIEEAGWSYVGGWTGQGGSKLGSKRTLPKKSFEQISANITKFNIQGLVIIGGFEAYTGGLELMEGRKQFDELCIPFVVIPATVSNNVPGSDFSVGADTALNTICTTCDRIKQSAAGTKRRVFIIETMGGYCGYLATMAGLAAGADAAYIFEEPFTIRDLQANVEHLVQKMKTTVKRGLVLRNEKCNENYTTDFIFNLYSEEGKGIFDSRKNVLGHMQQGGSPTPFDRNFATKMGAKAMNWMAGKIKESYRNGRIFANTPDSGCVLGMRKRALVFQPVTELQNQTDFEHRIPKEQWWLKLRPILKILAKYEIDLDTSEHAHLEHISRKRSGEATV
molecule,measurement,setting,value
"C=CCN1C(=O)O[C@@]2(C[C@]3(CC)C=CCN4CC[C@@]5(c6cc([C@@]7(C(=O)OC)C[C@@H]8CN(CCc9c7[nH]c7ccccc97)C[C@](O)(CC)C8)c(OC)cc6N(C)[C@H]52)[C@@H]43)C1=O [KAR-4, 3-allyl-2,4-dioxo-3,5-spiro-oxazolidino-4-deacetoxy-vinblastine]",Dose (mg kg-1) giving the maximal effect,[1],40 mg/kg
same,Maximal effect T/C (%),[1],214%
same,Cells ml-1 (per cent of control),[2]; [8],90 per cent of control
same,Total cells (per cent of control),[2]; [8],57 per cent of control
same,Volume of tumour per mouse,[2]; [9],3.33 mL
same,IC50,[3]; [10],3.5e-07 M
same,IC50,[4],185 nM
same,Effect on calmodulin induced PFK inactivation: Activity (U mg-1),[5],10.9 U mg-1
same,anti-calmodulin activity in the PFK assay (in words),[5],does not display anti-calmodulin activity
same,Anti-calmodulin activity: Efficiency (%),[5],5%
"CCC1(O)CC2CN(CCc3c([nH]c4ccccc34)C(C(=O)OC)(c3cc4c(cc3OC)N(C=O)C3C5(CC6(CC)C=CCN7CCC43C76)OC(=O)N(CCCl)C5=O)C2)C1 (centres unmarked) [KAR-3, 3-(-chloroethyl)-2,4-dioxo-3,5-spiro-oxazolidino-4-deacetoxy-vincristine]",Dose (mg kg-1) giving the maximal effect,[1],20 mg/kg
same,Maximal effect T/C (%),[1],187%
same,Cells ml-1 (per cent of control),[2]; [8],57 per cent of control
same,Total cells (per cent of control),[2]; [8],32 per cent of control
same,Volume of tumour per mouse,[2]; [9],3.00 mL
same,IC50,[3]; [10],3.1e-07 M
same,IC50,[4],136 nM
same,Effect on calmodulin induced PFK inactivation: Activity (U mg-1),[5],34.4 U mg-1
same,anti-calmodulin activity in the PFK assay (in words),[5],significant anti-calmodulin potency
same,reduction of the calmodulin-mediated inactivation of PFK,[5],about 50%
same,Anti-calmodulin activity: Efficiency (%),[5],45%
"CC[C@]1(O)C[C@H]2CN(CCc3c([nH]c4ccccc34)[C@@](C(=O)OC)(c3cc4c(cc3OC)N(C=O)[C@H]3[C@@](O)(C(=O)OC)[C@H](OC(C)=O)[C@]5(CC)C=CCN6CC[C@]43[C@@H]65)C2)C1 [Vincristine, vincristine, reference compound]",mortality of treated animals,"[2]; 15 mg kg-1 (highest dose) single dose i.p., three mice per group",death of two of the three treated animals
same,Total cells (per cent of control),"[2]; Table 2B, 1 mg kg-1 single dose i.p.",57 per cent of control
same,Volume of tumour per mouse,"[2]; Table 2B, 1 mg kg-1 single dose i.p., control 2.67 ml",2.00 mL
same,Cells ml-1 (per cent of control),[2]; [11],106 per cent of control
same,Total cells (per cent of control),[2]; [11],60 per cent of control
same,Volume of tumour per mouse,"[2]; Table 2B, 2 mg kg-1 single dose i.p., control 2.67 ml",1.50 mL
same,Cells ml-1 (per cent of control),[2]; [12],225 per cent of control
same,Total cells (per cent of control),[2]; [12],54 per cent of control
same,Volume of tumour per mouse,"[2]; Table 2B, 5 mg kg-1 single dose i.p., control 2.67 ml",0.64 mL
same,Cells ml-1 (per cent of control),[2]; [13],224 per cent of control
same,Total cells (per cent of control),[2]; [13],45 per cent of control
same,Volume of tumour per mouse,"[2]; Table 2B, 10 mg kg-1 single dose i.p., control 2.67 ml",0.53 mL
same,maximum dose that did not result in the death of the animals,"[2]; single dose i.p., Ehrlich ascites mice",10 mg/kg
same,IC50,"[3]; Homo sapiens, 96 h, read-out: Cytotoxicity MTA IC50",1.3e-08 M
same,IC50,"[3]; Homo sapiens, 96 h, read-out: Cytotoxicity MTA IC50 (M)",1.3e-08 M
same,IC50,[4],290 nM
same,Dose (mg kg-1) giving the maximal effect,[6],1 mg/kg
Calmodulin from bovine brain (from UniProt P62157 1-149) (natural protein),PFK activity after 60 min incubation with calmodulin and KAR-2 (calmodulin induced PFK inactivation),[7],11.1 U mg-1
same,PFK activity after 60 min incubation with calmodulin and KAR-3 (calmodulin induced PFK inactivation),[7],34.4 U mg-1
same,PFK activity after 60 min incubation with calmodulin and KAR-4 (calmodulin induced PFK inactivation),[7],10.9 U mg-1
same,PFK activity after 60 min incubation with calmodulin and trifluoperazine (calmodulin induced PFK inactivation),[7],46.1 U mg-1
same,efficiency of KAR-2 in suspending the calmodulin induced PFK inactivation,[7],5%
same,efficiency of KAR-3 in suspending the calmodulin induced PFK inactivation,[7],45%
same,efficiency of KAR-4 in suspending the calmodulin induced PFK inactivation,[7],5%
same,efficiency of trifluoperazine in suspending the calmodulin induced PFK inactivation,[7],65%
same,"residual PFK activity after 60 min incubation with calmodulin, no drug (66.6 U mg-1 without calmodulin)",[7],8 U mg-1

# From publication PMC2362735, “New semisynthetic vinca alkaloids: chemical, biochemical and cellular studies” (British Journal of Cancer, 1999)
